Where two headings read alike, the source gives them in different places. Bounds are passed on as bounds.

The target in series [1] is T1, human cannabis CB1 receptor (Homo sapiens, UniProt P21554).
T1 construct: expressed in transfected cells; host or cells: human embryonic kidney (HEK) cells, Semliki Forest Virus system
Briefly: Affinity for cannabinoid CB1 receptors, [3H]-CP-55,940 radioligand binding on HEK cell membranes. On the procedure: The affinity of the compounds of the invention for cannabinoid CB1 receptors was determined using membrane preparations of human embryonic kidney (HEK) cells in which the human cannabis CB1 receptor is transiently transfected using the Semliki Forest Virus system in conjunction with [3H]-CP-55,940 as radioligand. After incubation of a freshly prepared cell membrane preparation with the [3H]-ligand, with or without addition of compounds of the invention, separation of bound and free ligand was performed by filtration over glassfiber filters. Radioactivity on the filter was measured by liquid scintillation counting.

For series [2] the following is noted: doses of 5, 10 and 20 mg daily; cited from earlier work.
Where [3] appears, read: affinity for the CB1 receptor, read-out: IC50.

T1 sequence (P21554 whole entry): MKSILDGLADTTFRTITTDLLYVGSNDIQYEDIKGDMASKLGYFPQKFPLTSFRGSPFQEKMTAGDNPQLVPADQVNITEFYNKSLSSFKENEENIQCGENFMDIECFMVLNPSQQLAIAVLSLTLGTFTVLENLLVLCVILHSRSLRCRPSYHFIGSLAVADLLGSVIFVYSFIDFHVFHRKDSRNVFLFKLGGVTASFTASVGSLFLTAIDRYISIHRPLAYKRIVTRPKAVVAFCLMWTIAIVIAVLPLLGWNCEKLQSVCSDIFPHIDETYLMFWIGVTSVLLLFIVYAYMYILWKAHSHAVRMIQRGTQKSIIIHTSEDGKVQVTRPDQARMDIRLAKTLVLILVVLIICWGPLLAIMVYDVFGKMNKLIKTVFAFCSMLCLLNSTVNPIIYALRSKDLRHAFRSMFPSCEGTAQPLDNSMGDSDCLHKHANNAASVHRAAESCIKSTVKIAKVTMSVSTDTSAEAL

For the compound `O=C(c1cc2c(cc1F)OC(c1ccc(F)cc1)(c1ccc(F)cc1)O2)N1CCCC1` [Example 164, [6-fluoro-2,2-bis-(4-fluoro-phenyl)-benzo[1,3]dioxol-5-yl]-pyrrolidin-1-yl-methanone], the IC50 in series [1] (setting [3]) is less than 2000 nM. Same read-out and setting: the same measure for `O=S(=O)(c1cc2c(cc1F)OC1(O2)c2ccccc2CCc2ccccc21)N1CCOCC1` [Example 234]: less than 2000 nM. Consider `O=C(c1cc2c(cc1F)OC(c1ccccc1Cl)(c1ccccc1Cl)O2)N1CCOCC1`, for which the melting point is 98 °C. Regarding `O=C(c1cc2c(cc1F)OC(c1ccccc1F)(c1ccccc1F)O2)N1CC[C@H](O)C1` [Example 271], the IC50 in series [1] (setting [3]) was less than 2000 nM.

Take `O=S(=O)(c1ccc2c(c1)OC(c1ccc(F)cc1)(c1ccc(Cl)cc1Cl)O2)N1CCCCC1` (racemic) [Example 39, 1-[2-(2,4-dichloro-phenyl)-2-(4-fluoro-phenyl)-benzo[1,3]dioxole-5-sulfonyl]-piperidine]: in series [1] (setting [3]), the half-maximal inhibitory concentration (IC50) is less than 2000 nM. On the same count and under the same terms, the same measure for `O=S(=O)(c1ccc2c(c1)OC(c1ccccc1)(c1ccccc1)O2)N1CCc2ccccc2C1` [Example 18, 2-(2,2-diphenyl-benzo[1,3]dioxole-5-sulfonyl)-1,2,3,4-tetrahydro-isoquinoline]: less than 2000 nM; for `O=S(=O)(NCc1ccccc1)c1ccc2c(c1)OC(c1ccccc1)(c1ccccc1)O2` [Example 20, 2,2-diphenyl-benzo[1,3]dioxole-5-sulfonic acid benzylamide]: less than 2000 nM; for `O=S(=O)(c1ccc2c(c1)OC(c1ccccc1)(c1ccccc1)O2)N1CCCN(c2ncc(C(F)(F)F)cc2Cl)CC1` [Example 22, 1-(3-chloro-5-trifluoromethyl-pyridin-2-yl)-4-(2,2-diphenyl-benzo[1,3]dioxole-5-sulfonyl)-[1,4]diazepane]: less than 2000 nM.

`Fc1ccc(C2=CCN(Cc3ccc4c(c3)OC(c3ccccc3)(c3ccccc3)O4)CC2)cc1` [Example 75, 1-(2,2-diphenyl-benzo[1,3]dioxol-5-yl-methyl)-4-(4-fluoro-phenyl)-1,2,3,6-tetrahydro-pyridine]: in series [1] (setting [3]), the half-inhibitory concentration (IC50) was less than 2000 nM. Consider `O=C(c1cc2c(cc1F)OC(c1ccc(F)cc1)(c1ccc(Cl)cc1Cl)O2)N1CCOCC1` (stereo not drawn) [Example 108, [2-(2,4-dichloro-phenyl)-6-fluoro-2-(4-fluoro-phenyl)-benzo[1,3]dioxol-5-yl]-morpholin-4-yl-methanone], for which the IC50 in series [1] (setting [3]) is less than 2000 nM.

Compound `O=C(c1ccc2c(c1)OC(c1cccc(Cl)c1)(c1cccc(Cl)c1)O2)N1CCCCC1` returned a melting point of 54 °C.

The compound `O=C(c1ccc2c(c1)OC(c1ccccc1)(c1ccccc1)O2)N1CCC2(CC1)OCCO2` [Example 46, (1,4-dioxa-8-aza-spiro[4.5]dec-8-yl)-(2,2-diphenyl-benzo[1,3]dioxol-5-yl)-methanone] displayed an IC50 in series [1] of less than 2000 nM. For `O=C(c1ccc2c(c1F)OC(c1ccccc1)(c1ccccc1)O2)N1CCOCC1` [Example 65, (4-fluoro-2,2-diphenyl-benzo[1,3]dioxol-5-yl)-morpholin-4-yl-methanone], the concentration for half-maximal inhibition (IC50) in series [1] (setting [3]) is less than 2000 nM.

As to `Cc1c(C(=O)NN2CCCCC2)nn(-c2ccc(Cl)cc2Cl)c1-c1ccc(Cl)cc1` [SR 141716, Rimonabant], the “body weight compared to placebo” value in series [2] is recorded as “significantly reduced body weight”. Turning to `O=S(=O)(c1ccc2c(c1)OC(c1ccccc1)(c1ccccc1)O2)N1CCN(c2ccc(Cl)cc2Cl)CC1` [Example 4, 1-(2,4-dichloro-phenyl)-4-(2,2-diphenyl-benzo[1,3]dioxole-5-sulfonyl)-piperazine], in series [1] (setting [3]), the IC50 was less than 2000 nM.

What is called IC50 is the concentration at which inhibition is half-maximal. The melting point is the temperature of the solid-liquid transition.

The record behind these values is patent US7576088B2, “Benzodioxole derivatives” (Hoffman-La Roche Inc., priority 2002, dated 2009).
